Literature values as cited in patent US20070231388A1, “Novel Pharmaceutical Dosage Form and Manufacturing Process” (Atlana Pharma AG, priority 2004, published 2007).

Conditions: in comparison to pantoprazole itself or to pantoprazole sodium sesquihydrate

Q: With COc1ccnc(C[S+]([O-])c2nc3cc(OC(F)F)ccc3[n-]2)c1OC.COc1ccnc(C[S+]([O-])c2nc3cc(OC(F)F)ccc3[n-]2)c1OC.O.O.[Mg+2] (stereo not shown) [Magnesium bis[5-[difluoromethoxy]-2-[[3,4-dimethoxy-2-pyridinyl]-methyl]sulfinyl]-1H-benzimidazolide]dihydrate] as the compound, how does the stability properties read?
A: The stability properties was “improved stability properties”.
